The numbers were not newly measured in publication PMC2760809 (Nucleic Acids Research, 2009), which cites them from elsewhere.

The target in the series is many RNA molecules, including HIV TAR RNA and group I introns. The following applies: read-out: Kd of arginine for RNA molecules.

Turning to `N=C(N)NCCC[C@H](N)C(=O)O` [Arginine], the Kd was above 2000 µM.
